In ChEMBL document CHEMBL5346971, “Discovery of the First Irreversible HDAC6 Isoform Selective Inhibitor with Potent Anti-Multiple Myeloma Activity” (J Med Chem, 2023):
Calls of active or inactive are those of the source. The rule behind the calls is not given here.

Columns and labels:
[1] = biological target: T1, Class 1 histone deacetylase (Homo sapiens) (UniProt Q13547+O15379+Q92769+Q9BY41); assay: Irreversible inhibition of class 1 HDAC in human A549 cells assessed as acetyl histone H3 level at 0.4 uM incubated for 5 hrs followed by drug wash-out for 24 hrs by western blot analysis relative to control; assay type: cell-based
T1 sequence (O15379 whole entry, looked up): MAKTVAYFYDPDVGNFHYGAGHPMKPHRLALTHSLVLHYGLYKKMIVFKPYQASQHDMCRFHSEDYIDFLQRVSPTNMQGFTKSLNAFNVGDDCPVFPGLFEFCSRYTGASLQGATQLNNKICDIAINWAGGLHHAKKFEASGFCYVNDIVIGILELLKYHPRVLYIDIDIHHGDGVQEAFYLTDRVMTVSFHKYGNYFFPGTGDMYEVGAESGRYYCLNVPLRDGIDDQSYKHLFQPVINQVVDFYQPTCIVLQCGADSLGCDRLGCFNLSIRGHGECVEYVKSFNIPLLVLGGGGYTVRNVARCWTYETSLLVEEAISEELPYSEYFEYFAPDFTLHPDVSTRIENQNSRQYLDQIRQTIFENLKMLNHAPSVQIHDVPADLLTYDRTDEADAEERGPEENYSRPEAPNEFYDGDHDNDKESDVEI
T1 sequence (Q13547 whole entry, looked up): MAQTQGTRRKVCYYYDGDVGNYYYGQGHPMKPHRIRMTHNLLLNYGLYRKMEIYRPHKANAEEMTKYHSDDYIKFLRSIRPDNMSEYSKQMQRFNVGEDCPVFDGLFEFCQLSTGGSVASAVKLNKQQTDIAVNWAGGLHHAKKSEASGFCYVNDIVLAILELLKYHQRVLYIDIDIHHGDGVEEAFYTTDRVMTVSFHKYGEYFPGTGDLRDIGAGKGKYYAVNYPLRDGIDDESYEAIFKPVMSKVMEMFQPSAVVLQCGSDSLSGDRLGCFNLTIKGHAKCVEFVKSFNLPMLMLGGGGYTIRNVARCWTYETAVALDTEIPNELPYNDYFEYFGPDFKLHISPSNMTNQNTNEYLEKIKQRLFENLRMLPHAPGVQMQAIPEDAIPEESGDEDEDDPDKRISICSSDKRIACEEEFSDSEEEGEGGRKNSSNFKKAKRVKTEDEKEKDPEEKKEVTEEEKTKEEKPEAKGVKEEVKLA
T1 sequence (Q92769 whole entry, looked up): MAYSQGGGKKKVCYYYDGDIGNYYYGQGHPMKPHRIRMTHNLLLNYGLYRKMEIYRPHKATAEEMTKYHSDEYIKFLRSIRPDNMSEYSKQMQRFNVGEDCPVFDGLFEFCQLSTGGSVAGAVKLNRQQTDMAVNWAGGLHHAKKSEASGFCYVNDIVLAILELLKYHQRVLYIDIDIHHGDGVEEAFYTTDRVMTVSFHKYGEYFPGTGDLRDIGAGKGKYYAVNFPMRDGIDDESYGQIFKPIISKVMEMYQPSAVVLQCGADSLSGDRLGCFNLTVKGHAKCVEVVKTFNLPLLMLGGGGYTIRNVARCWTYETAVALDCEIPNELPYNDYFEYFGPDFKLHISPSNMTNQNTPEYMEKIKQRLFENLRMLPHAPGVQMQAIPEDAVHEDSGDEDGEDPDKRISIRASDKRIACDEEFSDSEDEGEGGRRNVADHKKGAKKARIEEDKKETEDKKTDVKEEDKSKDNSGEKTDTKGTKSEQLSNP
T1 sequence (Q9BY41 whole entry, looked up): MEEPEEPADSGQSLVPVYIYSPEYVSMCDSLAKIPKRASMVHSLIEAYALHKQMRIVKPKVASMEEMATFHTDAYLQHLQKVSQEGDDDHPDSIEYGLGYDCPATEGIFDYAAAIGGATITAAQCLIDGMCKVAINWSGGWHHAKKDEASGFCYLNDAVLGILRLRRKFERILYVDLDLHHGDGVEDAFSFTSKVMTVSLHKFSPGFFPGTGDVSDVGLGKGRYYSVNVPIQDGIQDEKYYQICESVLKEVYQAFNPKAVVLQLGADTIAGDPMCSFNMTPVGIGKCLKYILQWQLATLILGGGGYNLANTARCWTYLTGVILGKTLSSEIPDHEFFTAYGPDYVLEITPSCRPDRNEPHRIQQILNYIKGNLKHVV

RPMI-8226 [2] = assay: Induction of cell cycle arrest in human RPMI-8226 cells assessed as proportion of cells at G2/M phase at 0.1 uM incubated for 24 hrs by PI staining based flow cytometry (reference value: 19.8%); assay type: functional
[3] = biological target: T1, Class 1 histone deacetylase (Homo sapiens); assay: Irreversible inhibition of class 1 HDAC in human A549 cells assessed as acetyl histone H4 level at 0.4 uM incubated for 5 hrs followed by drug wash-out for 1 hr by western blot analysis relative to control; assay type: cell-based
Histone deacetylase 7 = biological target: T2, Histone deacetylase 7 (Homo sapiens, UniProt Q8WUI4); assay: Inhibition of N-terminal GST-tagged human HDAC7 (518 to end residues) expressed in baculovirus-infected Sf9 cells using Boc-Lys(trifluoroacety1)-AMC as substrate preincubated with enzyme for 1 hr followed by substrate addition and measured after 30 mins by fluorescence based analysis
T2 sequence (Q8WUI4 whole entry): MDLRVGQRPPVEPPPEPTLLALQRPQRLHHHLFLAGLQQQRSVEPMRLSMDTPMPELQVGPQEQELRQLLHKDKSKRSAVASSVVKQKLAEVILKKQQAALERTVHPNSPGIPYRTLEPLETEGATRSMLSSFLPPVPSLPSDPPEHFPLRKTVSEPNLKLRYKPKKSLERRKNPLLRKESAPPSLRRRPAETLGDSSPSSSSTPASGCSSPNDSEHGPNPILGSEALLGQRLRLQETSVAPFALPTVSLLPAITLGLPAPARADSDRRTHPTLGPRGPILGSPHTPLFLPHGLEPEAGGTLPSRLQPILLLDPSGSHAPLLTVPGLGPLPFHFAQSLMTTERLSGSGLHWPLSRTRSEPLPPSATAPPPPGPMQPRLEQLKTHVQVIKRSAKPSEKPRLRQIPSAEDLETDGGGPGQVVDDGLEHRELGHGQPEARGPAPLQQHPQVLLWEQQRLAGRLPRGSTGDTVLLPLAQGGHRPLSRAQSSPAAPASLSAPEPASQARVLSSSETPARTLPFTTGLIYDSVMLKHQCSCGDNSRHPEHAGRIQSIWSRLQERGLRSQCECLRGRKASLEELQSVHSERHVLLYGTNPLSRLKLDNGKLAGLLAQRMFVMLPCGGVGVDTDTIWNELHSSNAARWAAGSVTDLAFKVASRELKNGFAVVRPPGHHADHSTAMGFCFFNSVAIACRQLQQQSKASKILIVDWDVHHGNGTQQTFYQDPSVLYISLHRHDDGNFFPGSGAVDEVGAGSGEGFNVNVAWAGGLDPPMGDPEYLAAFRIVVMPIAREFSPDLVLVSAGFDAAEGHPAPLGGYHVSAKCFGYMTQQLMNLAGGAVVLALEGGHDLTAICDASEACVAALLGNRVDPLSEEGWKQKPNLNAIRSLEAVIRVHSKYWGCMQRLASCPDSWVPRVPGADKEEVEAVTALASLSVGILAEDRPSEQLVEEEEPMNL

[4] = biological target: T1, Class 1 histone deacetylase (Homo sapiens); assay: Inhibition of class 1 HDAC in human A549 cells assessed as acetyl histone H4 level at 2 uM incubated for 5 hrs by western blot analysis relative to control; assay type: cell-based
RPMI-8226 [5] = assay: Induction of apoptosis in human RPMI-8226 cells assessed as proportion of necrotic cells at 0.1 uM incubated for 24 hrs by AnnexinV-FITC/PI staining based flow cytometry (reference value: 0.49%); assay type: functional, cell-based
[6] = Half-life in mouse liver microsomes in presence of NADPH by LC-MS/MS analysis; assay type: ADME, Microsome
[7] = Half-life in rat liver microsomes in presence of NADPH by LC-MS/MS analysis; assay type: ADME, Microsome
Histone deacetylase 9 = Histone deacetylase 9 (Homo sapiens, UniProt Q9UKV0); assay: Inhibition of C-terminal His-tagged human recombinant HDAC9 (604 to 1066 residues) expressed in baclovirus-infected Sf9 cells using Boc-Lys(trifluoroacety1)-AMC as substrate preincubated with enzyme for 1 hr followed by substrate addition and measured after 30 mins by fluorescence based analysis
Sequence of Histone deacetylase 9 (Q9UKV0 whole entry, the tested form may be a part): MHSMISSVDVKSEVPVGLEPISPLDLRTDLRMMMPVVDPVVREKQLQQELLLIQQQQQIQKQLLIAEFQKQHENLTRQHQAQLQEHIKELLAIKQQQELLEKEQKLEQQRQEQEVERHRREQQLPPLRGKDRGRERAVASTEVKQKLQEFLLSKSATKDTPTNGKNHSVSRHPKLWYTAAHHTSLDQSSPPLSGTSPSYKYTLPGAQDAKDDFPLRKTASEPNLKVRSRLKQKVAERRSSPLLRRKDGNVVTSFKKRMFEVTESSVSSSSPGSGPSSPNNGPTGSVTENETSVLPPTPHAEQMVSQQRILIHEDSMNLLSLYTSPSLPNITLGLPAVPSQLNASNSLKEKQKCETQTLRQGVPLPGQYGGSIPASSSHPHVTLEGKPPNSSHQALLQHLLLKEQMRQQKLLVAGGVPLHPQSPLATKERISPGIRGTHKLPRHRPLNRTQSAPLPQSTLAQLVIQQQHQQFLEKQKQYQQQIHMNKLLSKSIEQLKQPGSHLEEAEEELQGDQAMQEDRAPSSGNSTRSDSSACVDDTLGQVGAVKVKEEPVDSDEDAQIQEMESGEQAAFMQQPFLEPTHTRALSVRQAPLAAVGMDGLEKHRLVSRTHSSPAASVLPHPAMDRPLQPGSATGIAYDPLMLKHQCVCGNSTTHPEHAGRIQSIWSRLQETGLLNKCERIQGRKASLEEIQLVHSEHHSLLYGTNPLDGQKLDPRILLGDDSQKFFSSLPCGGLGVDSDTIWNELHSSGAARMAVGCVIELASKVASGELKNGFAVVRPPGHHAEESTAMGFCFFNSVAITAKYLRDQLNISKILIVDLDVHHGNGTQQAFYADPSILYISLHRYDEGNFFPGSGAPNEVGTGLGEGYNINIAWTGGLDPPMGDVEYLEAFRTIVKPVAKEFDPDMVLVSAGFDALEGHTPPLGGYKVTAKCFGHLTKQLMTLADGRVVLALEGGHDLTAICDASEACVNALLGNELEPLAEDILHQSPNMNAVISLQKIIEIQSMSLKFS

[8] = Effect on HDAC6 protein expression in human A549 cells assessed as change in HDAC6 protein expression at 0.4 uM incubated for 5 hrs followed by drug wash-out for 1 hr by western blot analysis relative to control; assay type: functional
RPMI-8226 [9] = assay: Induction of apoptosis in human RPMI-8226 cells incubated for 24 hrs by AnnexinV-FITC/PI staining based flow cytometry; assay type: functional, cell-based; details: dose 0.1-0.5 µM
[10] = Effect on HDAC6 protein expression in human A549 cells assessed as change in HDAC6 protein expression at 0.4 uM incubated for 5 hrs followed by drug wash-out for 6 hrs by western blot analysis relative to control; assay type: functional

Molecule `O=C(NO)c1ccc(COc2no[n+]([O-])c2S(=O)(=O)c2ccccc2)cc1` has a fold change (FC) [1] of 1.2, an Activity (RPMI-8226 [2]) of 21.4% and a fold change (FC) [3] of 1.2. The IC50 (Histone deacetylase 7) was over 40 µM, the fold change (FC) [4] was 1.6 and the Activity (RPMI-8226 [5]) was “Active”. The half-life [6] was 1.8 min, the half-life [7] was 9.2 min and the IC50 (Histone deacetylase 9) was over 40 µM. The “fold change (FC)” value [8] was 1.2, the Activity (RPMI-8226 [9]) was “Dose-Dependent Effect” and the “fold change (FC)” value [10] was 1.1.
